Measurements reported in paper PMC10287695, “Non-covalent inhibitors of thioredoxin glutathione reductase with schistosomicidal activity in vivo” (Nature Communications, 2023).
“And” between values parts separate entries of the source, which are not always exact repeats. Equal values may be shown once. Read-outs that look alike come from different tables or passages of the source. Marks after values point to notes of the source that are not given here.

Assays:
TGR [1] = target: T1, TGR (Schistosoma mansoni, UniProt Q962Y6); assay: Thermal shift assay (TSA); format: binding; parameters: key to Avg. Tm / Tm, replicate 1-3: Tm in °C, from a 25–95 °C melt curve; conditions: for Avg. Tm / Tm, replicate 1-3: TGR + 100 µM compound; for Avg. Tm, + 500 µM NADPH / Tm, replicate 1-3, + 500 µM NADPH: TGR + 100 µM compound + 500 µM NADPH; for Tm, replicate 1-3, + 500 µM NADPH / Tm, replicate 1-3: single replicates
T1 construct: made in house
T1 sequence (Q962Y6 1-598): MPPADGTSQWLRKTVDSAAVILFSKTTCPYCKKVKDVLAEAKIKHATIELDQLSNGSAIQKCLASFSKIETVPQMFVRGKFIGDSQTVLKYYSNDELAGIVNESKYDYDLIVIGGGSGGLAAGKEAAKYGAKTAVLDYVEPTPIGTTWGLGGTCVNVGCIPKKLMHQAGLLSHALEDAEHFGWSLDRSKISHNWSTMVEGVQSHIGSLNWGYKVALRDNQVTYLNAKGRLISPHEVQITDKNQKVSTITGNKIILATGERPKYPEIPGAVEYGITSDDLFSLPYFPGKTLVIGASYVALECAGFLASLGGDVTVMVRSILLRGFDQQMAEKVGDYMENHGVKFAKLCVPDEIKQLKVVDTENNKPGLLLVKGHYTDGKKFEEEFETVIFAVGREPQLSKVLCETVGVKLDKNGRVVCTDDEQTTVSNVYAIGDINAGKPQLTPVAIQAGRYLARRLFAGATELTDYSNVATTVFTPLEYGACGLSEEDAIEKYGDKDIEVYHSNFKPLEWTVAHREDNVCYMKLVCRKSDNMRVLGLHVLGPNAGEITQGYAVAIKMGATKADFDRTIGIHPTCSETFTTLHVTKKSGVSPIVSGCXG

S. japonicum adult worms = assay: Schistosomicidal activity ex vivo, S. japonicum adult worms; format: cell-based; conditions: for LD50 ex vivo S. japonicum adult: 48 h exposure
In short: (§1)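 Worms recovered from infected Swiss-Webster mice and cultured overnight, then exposed in triplicate to compounds in RPMI (juvenile, adult) at <1% DMSO; 5 µM AF as positive control. Viability calculated as test mean over DMSO-control mean ×100; adult worms read by CellTiter-Glo, alone or with channel blockers.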

TGR [2] = target: T1, TGR; assay: Time dependence of inhibition; format: biochemical; parameters: avg % inhib, 0.5 hr / avg % inhib, 1 hr / avg % inhib, 2 hr / avg % inhib, 3 hr / avg % inhib, 6 hr / avg % inhib, 24 hr: tested at 50 µM
Procedure: TGR was incubated at room temperature (up to 6 h) and at 4 °C for 6 to 24 h with 50 µM inhibitor and 100 µM NADPH for the indicated times. Then DTNB (3 mM) and NADPH (100 µM) were added, and the reaction was monitored at A412 for 5 min. The assay was done in triplicate.

[3] = tested on: S. mansoni juvenile worms (21 days); assay: Schistosomicidal activity ex vivo, juvenile worms (21 days); format: cell-based; conditions: for viability at 5 µM / viability at 15 µM / viability at 30 µM: Schistosoma mansoni, 23 day S. mansoni worms, 48 HR; for viability at 5 µM: Conc. 5 µM; for viability at 15 µM: Conc. 15 µM; for viability at 30 µM: Conc. 30 µM; for LD50 ex vivo S. mansoni 21 days: juvenile worms, 48 h exposure
In short: as §1

BmTrxR = BmTrxR (Brugia malayi, UniProt A0A1I9G0T9); assay: B. malayi TrxR enzyme inhibition; format: biochemical
In short: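 Recombinant, purified BmTrxR in a DTNB reduction assay: reaction started with an equal volume of DTNB (6 mM) and NADPH (100 µM), and the A412 increase over the first 3 min recorded. Run in triplicate; IC50 from curve fitting.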

TGR [4] = target: T1, TGR; assay: Reversibility by jump dilution; format: biochemical; conditions: for % Activity (ID list), D60 / % Inhibition (ID list), D60: D60: diluted 1:100, activity determined after 60 min; for Inhibitor (rate), 0 min / % Activity, 0 min: [0, D0]: 15 min preincubation inhibitor + TGR + NADPH, diluted 1:100, then activity determined immediately; for Inhibitor (rate), 0 min / Inhibitor (rate), 60 min / Inhibitor (rate), -15: raw rate; for % Activity, 0 min / % Activity, 60 min / % Activity, -15: relative to DMSO; for Inhibitor (rate), 60 min / % Activity, 60 min: [60, D60]: 15 min preincubation inhibitor + TGR + NADPH, diluted 1:100, then activity determined after 60 min; for Inhibitor (rate), -15 / % Activity, -15: [-15]: 15 min preincubation inhibitor + TGR + NADPH, then activity determined, replicates; for % Activity (ID list) / % Inhibition (ID list): before dilution (-15)
Procedure: A reaction of 370 nM TGR, 100 µM NADPH, and 250 µM inhibitor was incubated for 15 min at room temperature. A 100x dilution of the reaction was made and the activity was determined immediately and after 60 min.

[5] = D0: diluted 1:100, activity determined immediately, list for plotting

BmTrxR, sequence (A0A1I9G0T9 entry or part of it, added parts left off): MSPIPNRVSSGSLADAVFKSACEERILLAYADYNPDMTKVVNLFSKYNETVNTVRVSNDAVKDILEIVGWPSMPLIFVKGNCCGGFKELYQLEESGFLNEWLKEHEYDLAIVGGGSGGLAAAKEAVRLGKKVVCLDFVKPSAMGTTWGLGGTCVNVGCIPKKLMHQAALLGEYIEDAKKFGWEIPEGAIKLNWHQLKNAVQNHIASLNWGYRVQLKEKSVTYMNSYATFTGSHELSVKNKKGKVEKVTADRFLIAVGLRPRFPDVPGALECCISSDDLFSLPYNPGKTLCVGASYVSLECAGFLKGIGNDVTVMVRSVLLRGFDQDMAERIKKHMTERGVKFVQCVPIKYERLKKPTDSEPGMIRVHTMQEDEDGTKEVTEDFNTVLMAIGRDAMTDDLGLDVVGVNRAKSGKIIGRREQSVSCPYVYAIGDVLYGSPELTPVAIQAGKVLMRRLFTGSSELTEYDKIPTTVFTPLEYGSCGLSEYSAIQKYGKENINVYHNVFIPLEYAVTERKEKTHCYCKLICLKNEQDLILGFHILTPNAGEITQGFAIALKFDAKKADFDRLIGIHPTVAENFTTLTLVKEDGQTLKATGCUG

`Cc1oc(-c2ccccc2)nc1CN[C@@H]1C[C@@H]2C[C@H]([C@H]1C)C2(C)C` [Compound 3] was tested, and the “Avg. Tm” value (TGR [1]) was 73.5, the “Avg. Tm, + 500 µM NADPH” value (TGR [1]) was 73.67 and the “Tm, replicate 1-3, + 500 µM NADPH” value (TGR [1]) was 74 and 73.5 (2×). The “Tm, replicate 1-3” value (TGR [1]; in °C (unit assumed)) was 73.5, the “effect on Tm of oxidized TGR” value (TGR [1]; without NADPH) was “Neither fast 6-9 nor slow TGR inhibitors 1, 3, 5 affected the Tm” and the “LD50 ex vivo S. japonicum adult” value (S. japonicum adult worms) was 13.9 ± 1.45 µM. The “rate, 0.5 hr” value (TGR [2]; panel d Time Dependence, 0.5 hr) was 0.04131 and 0.04323 and 0.04147, the “avg % inhib, 0.5 hr” value (TGR [2]; panel d Time Dependence, 0.5 hr, average) was 24.9564% and the “% inhib, 0.5 hr” value (TGR [2]; panel d Time Dependence, 0.5 hr, replicates) was 25.1766% and 23.3647% and 26.3279%. For the same compound, the “rate, 1 hr” value (TGR [2]; panel d Time Dependence, 1 hr) was 0.03461 and 0.03399 and 0.03516, the “avg % inhib, 1 hr” value (TGR [2]; panel d Time Dependence, 1 hr, average) was 32.5613% and the “% inhib, 1 hr” value (TGR [2]; panel d Time Dependence, 1 hr, replicates) was 32.6392% and 32.4657% and 32.5791%. The “rate, 2 hr” value (TGR [2]; panel d Time Dependence, 2 hr) was 0.02942 and 0.0272 and 0.02813, the “avg % inhib, 2 hr” value (TGR [2]; panel d Time Dependence, 2 hr, average) was 39.6519% and the “% inhib, 2 hr” value (TGR [2]; panel d Time Dependence, 2 hr, replicates) was 35.4116% and 41.9052% and 41.639%. For the same compound, the “rate, 3 hr” value (TGR [2]; panel d Time Dependence, 3 hr) was 0.02162 and 0.0222 and 0.02273, the “avg % inhib, 3 hr” value (TGR [2]; panel d Time Dependence, 3 hr, average) was 45.1094% and the “% inhib, 3 hr” value (TGR [2]; panel d Time Dependence, 3 hr, replicates) was 45.8417% and 44.831% and 44.6555%. The “rate, 6 hr” value (TGR [2]; panel d Time Dependence, 6 hr) was 0.01203 and 0.009487 and 0.01329, the “avg % inhib, 6 hr” value (TGR [2]; panel d Time Dependence, 6 hr, average) was 55.8948% and the “% inhib, 6 hr” value (TGR [2]; panel d Time Dependence, 6 hr, replicates) was 54.3454% and 63.1143% and 50.2247%. The “rate, 24 hr” value (TGR [2]; panel d Time Dependence, 24 hr) was 0.008207 and 0.008188 and 0.0092, the “avg % inhib, 24 hr” value (TGR [2]; panel d Time Dependence, 24 hr, average) was 56.6355% and the “% inhib, 24 hr” value (TGR [2]; panel d Time Dependence, 24 hr, replicates) was 56.206% and 58.6882% and 55.0122%. It also gave a viability at 5 µM [3] of 66%, a viability at 15 µM [3] of 43.1% and a viability at 30 µM [3] of 32.1%. The “LD50 ex vivo S. mansoni 21 days” value [3] was 10.9 ± 0.39 µM, the inhibition at 10 µM (BmTrxR) was -15.1% and the inhibition at 25 µM (BmTrxR) was -10.6%. For the same compound, the inhibition at 50 µM (BmTrxR) was -20.9%, the “BmTrxR % inhibition at 50 µM” value (BmTrxR; 50 µM, the highest concentration tested) was “n.i” and the “% Activity (ID list), D0” value (TGR [4]; [5]) was 107.0% and 101.9% and 120.0%. For the same compound, the “% Activity (ID list), D60” value (TGR [4]; list for plotting) was 112.2%, the “% Inhibition (ID list), D60” value (TGR [4]; list for plotting) was -12.2% and -2.4% and -4.0% and the “Inhibitor (rate), 0 min” value (TGR [4]) was 0.04937 and 0.04787 and 0.05217. For the same compound, the “% Activity, 0 min” value (TGR [4]) was 106.977% and 101.851% and 120.346%, the “Inhibitor (rate), 60 min” value (TGR [4]) was 0.04847 and 0.05055 and 0.05088 and the “% Activity, 60 min” value (TGR [4]) was 112.121% and 113.417% and 109.021%. The “Inhibitor (rate), -15” value (TGR [4]) was 0.01322 and 0.01449, the “% Activity, -15” value (TGR [4]) was 38.3633% and 40.1163% and the “% Activity (ID list)” value (TGR [4]; list for plotting) was 38.4% and 40.1%. The “% Inhibition (ID list)” value (TGR [4]; list for plotting) was 61.6367% and 59.8837% and 55%.

In the case of `Cc1oc(C2CCCCC2)nc1C(=O)N[C@@H]1C[C@@H]2C[C@H]([C@H]1C)C2(C)C` [Compound 7], the “Avg. Tm” value (TGR [1]) is reported as 73.6667, the “Avg. Tm, + 500 µM NADPH” value (TGR [1]) is reported as 73.5 and the “Tm, replicate 1-3, + 500 µM NADPH” value (TGR [1]; in °C (unit assumed)) is reported as 73.5. For the same compound, the “Tm, replicate 1-3” value (TGR [1]) was 73.5 (2×) and 74, the “LD50 ex vivo S. japonicum adult” value (S. japonicum adult worms) was 26.8 ± 1.62 µM and the viability at 5 µM (S. japonicum adult worms; Schistosoma japonicum, S. japonicum adult worms, 48 hr, Conc. 5 µM) was 89%. The viability at 15 µM (S. japonicum adult worms; Schistosoma japonicum, S. japonicum adult worms, 48 hr, Conc. 15 µM) was 71.1%, the viability at 30 µM (S. japonicum adult worms; Schistosoma japonicum, S. japonicum adult worms, 48 hr, Conc. 30 µM) was 39.8% and the “TGR activity relative to dmso, time 0” value (TGR [2]; panel c, time 0 (time unit not given), replicates) was 10.9848 and 15.3969 and 9.648. For the same compound, the “TGR activity relative to dmso, time 5” value (TGR [2]; panel c, time 5 (time unit not given), replicates) was 3.59 and 2.532 and 3.143, the “TGR activity relative to dmso, time 10” value (TGR [2]; panel c, time 10 (time unit not given), replicates) was 6.629 and 6.846 and 6.371 and the “TGR activity relative to dmso, time 15” value (TGR [2]; panel c, time 15 (time unit not given), replicates) was 7.462 and 7.906 and 7.375. The “TGR activity relative to dmso, time 30” value (TGR [2]; panel c, time 30 (time unit not given), replicates) was 9.0362 and 7.137 and 8.678, the viability at 5 µM [3] was 77.6% and the viability at 15 µM [3] was 63.5%. For the same compound, the viability at 30 µM [3] was 58.7%, the “LD50 ex vivo S. mansoni 21 days” value [3] was >30^a µM and the inhibition at 10 µM (BmTrxR; BmTrxR, 10 µM compound, mean of 3 replicates, read-out: % inhibition) was -2.13%. It also gave an inhibition at 25 µM (BmTrxR; BmTrxR, 25 µM compound, mean of 3 replicates, read-out: % inhibition) of -0.458%, an inhibition at 50 µM (BmTrxR; BmTrxR, 50 µM compound, mean of 3 replicates, read-out: % inhibition) of -0.00455% and an inhibition at 50 µM (BmTrxR; read-out: BmTrxR % inhibition at 50 µM, 50 µM, the highest concentration tested) of 11%. The “% Activity (ID list), D0” value (TGR [4]; [5]) was 98.5% and 102.6% and 100.0%, the “% Inhibition (ID list), D0” value (TGR [4]; [5]) was 1.5% and -2.6% and the “% Activity (ID list), D60” value (TGR [4]; list for plotting) was 100.2% and 98.4% and 96.1%. The “% Inhibition (ID list), D60” value (TGR [4]; list for plotting) was -0.17% and 1.6% and 3.9%, the “Inhibitor (rate), 0 min” value (TGR [4]) was 0.04944 and 0.05279 and the “% Activity, 0 min” value (TGR [4]) was 98.4664% and 102.604%. The “Inhibitor (rate), 60 min” value (TGR [4]) was 0.04706 and 0.04925 and 0.04684, the “% Activity, 60 min” value (TGR [4]) was 100.17% and 98.4213% and 96.1018% and the “Inhibitor (rate), -15” value (TGR [4]) was 0.001091 and 8.088e-5 and -1.437e-5. For the same compound, the “% Activity, -15” value (TGR [4]) was 2.42% and 0.1757%, the “% Activity (ID list)” value (TGR [4]; list for plotting) was 2.4% and 0.2% and -0.3% and the “% Inhibition (ID list)” value (TGR [4]; list for plotting) was 97.6% and 99.8% and 100.3%.
